Values quoted from earlier work, collected in article PMC11360046 (ACS Omega, 2024).

Test system: BRD4 BD2
Settings: read-out: IC50 BRD4 BD2; I-58

IC50: 1.88 nM
SMILES: CN1CCC(Nc2cccc(CN3c4ccccc4C=C4c5c(cccc53)C(=O)N4C)c2)CC1 [Compound I-58, 1-methyl-6-(3-((1-methylpiperidin-4-yl)amino)benzyl)-1,6-dihydro-2H-benzo[6,7]azepino[4,3,2-cd]isoindol-2-one]
